Like-named read-outs stand apart in the source and are kept apart here. One block for each molecule: values may come before it.
Tests used:
[1] = test system: LTD4; experiment: Leukotriene D4 (LTD4) Induced Arrhythmia Test; format: in vivo, guinea pig (Hartley); details: 10 mg/kg i.v. 5 min. before LTD4; conscious guinea pigs
Experimental: Male Hartley guinea pigs are anesthetized with sodium pentobarbital and prepared for monitoring direct blood pressure and injecting drugs intravenously by catheterizing the right carotid artery and right jugular vein. Blood pressure, heart rate, and Lead II ECG are monitored in the conscious animal 24 hours later.
Intravenous administration of LTD4 (2.5 pg/kg) is associated with an increase in blood pressure lasting approximately 1-2 minutes followed by a decrease lasting approximately 5-15 minutes (FIG. 3). Abnormal beats consisting of premature ventricular contractions, ST elevation or depression, atrioventricular conduction block, or dissociated p waves begin during the rise in blood pressure; the peak effect occurs approximately 40 seconds after LTD4. The percent of abnormal beats was quantitated by determining the number present during the first 2 minutes after injection and calculating the percent increase above the control level. During the hypotensive response, the animal usually collapses during the 2nd or 3rd minute after LTD4.

[2] = test system: SRS-A; experiment: Guinea Pig Ileum, In Vitro (SRS-A antagonism)
Experimental: The guinea pig ileum bioassay system has been described by Orange and Austen, Adv. Immunol. 10: 104-144 ([…]). A 1.5 cm segment is removed from animals weighting 300-400 g. and suspended in an organ bath containing 10 ml. of Tyrodes solution with 10^-6 M atropine sulfate and 10^-6 M pyrilamine maleate. The bath is maintained at 37° C. and aerated with a mixture of 95% oxygen and 5% carbon dioxide. The SRS-A utilized in this screen is obtained by challenging chopped lung fragments from actively sensitized guinea pigs with egg albumin, in vitro. A dose-response curve to SRS-A challenge is established for the ileum. The dose of SRS-A which gives 50% of the maximal contraction (EC50) is then used for subsequent challenge. The drug concentration which inhibits, by 50%, the SRS-A induced constriction of the guinea pig ileum is determined.

[3] = molecular target: T1, TXA2 synthase (Homo sapiens, UniProt P24557); experiment: Thromboxane Synthase Inhibition, In Vitro; format: biochemical; details: at 1 μM (value in parentheses), human platelet microsomes
T1 construct: microsomal fractions from human platelets as enzyme source; from tissue; host or cells: microsomal fraction of human platelets
T1 sequence (P24557 1-533): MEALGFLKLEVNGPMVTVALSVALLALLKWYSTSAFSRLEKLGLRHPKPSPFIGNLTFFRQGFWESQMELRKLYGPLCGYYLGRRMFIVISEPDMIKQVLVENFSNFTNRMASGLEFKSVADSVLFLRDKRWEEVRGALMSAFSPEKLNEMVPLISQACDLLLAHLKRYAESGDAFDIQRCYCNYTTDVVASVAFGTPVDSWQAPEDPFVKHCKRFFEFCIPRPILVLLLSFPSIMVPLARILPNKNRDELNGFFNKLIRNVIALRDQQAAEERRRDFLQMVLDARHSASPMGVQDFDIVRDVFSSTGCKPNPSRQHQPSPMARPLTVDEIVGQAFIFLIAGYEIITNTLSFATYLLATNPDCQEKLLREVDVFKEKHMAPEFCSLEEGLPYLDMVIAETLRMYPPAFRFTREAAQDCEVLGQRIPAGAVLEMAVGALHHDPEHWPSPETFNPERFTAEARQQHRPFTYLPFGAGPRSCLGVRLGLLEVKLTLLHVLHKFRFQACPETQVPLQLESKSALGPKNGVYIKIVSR
Experimental: TXA2 synthase activity is measured by following the conversion of ^14 C-prostaglandin endoperoxide (PGH2) to ^14 C-thromboxane A2 (TXA2) using microsomal fractions from human platelets as enzyme source. In the aqueous incubation medium, the TXA2 decomposes rapidly into TXB2. The amount of TXA2 synthase is adjusted so that under the conditions of the assay approximately 80-90% of the substrate, PGH2, is converted to product in control tubes. To prepare ^14 C-PGH2, ^14 C-AA (50-60 mCi/mmole; Rose Chem.) is incubated with sheep seminal vesicular gland microsomes for 1.5 minutes at 37° C. and then the ^14 C-PGH2 is extracted with diethylether, purified on columns of Sephadex LH-20 or silicic acid, and stored in acetone at -70° C. Incubations are done as follows. Sufficient ^14 C-PGH2 yield a final substrate concentration of 10 μM (~30,000 cpm) is added to the incubation tubes and then the acetone is removed under nitrogen. […] The tubes are incubated at 22° C. for 2 minutes, the reaction is stopped and then the radioactive products and the unconverted PGH2 are extracted and analyzed by thin layer chromatography. […] The amount of ^14 C-PGH2 converted to products was used as a measure of TXA2 synthase activity. Inhibitors were tested initially at a final concentration of 100 μM. Results obtained with representative compounds of the present invention in this assay are summarized hereafter in Table I, II and III.

[4] = molecular target: T2, PAF (Canis lupus familiaris, UniProt A0A8I3NSH0); experiment: PAF Radioreceptor Binding Assay; details: dog platelets, 3H-PAF
T2 construct: followed by 2×10^7 dog platelets; from tissue; host or cells: washed platelets from citrate-treated dog blood
T2 sequence (A0A8I3NSH0 1-343): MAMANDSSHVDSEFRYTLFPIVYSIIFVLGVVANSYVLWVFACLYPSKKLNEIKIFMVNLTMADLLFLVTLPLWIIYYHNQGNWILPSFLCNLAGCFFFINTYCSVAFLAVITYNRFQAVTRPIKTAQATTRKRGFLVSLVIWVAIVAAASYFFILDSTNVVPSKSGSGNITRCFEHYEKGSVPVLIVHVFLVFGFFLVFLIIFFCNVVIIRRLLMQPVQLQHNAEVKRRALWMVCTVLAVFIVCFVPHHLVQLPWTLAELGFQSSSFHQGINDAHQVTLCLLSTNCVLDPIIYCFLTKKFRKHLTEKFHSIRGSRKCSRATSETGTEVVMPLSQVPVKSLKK
Experimental: Platelet rich plasma is prepared by centrifugation of citrate-treated dog blood. Acidification to pH 6.5 with 0.15 M citric acid and centrifugation for 10 minutes at 1000 xg yields a platelet pellet which is then washed by resuspension in EDTA-Phosphate Buffered Saline (PBS) and recentrifuged. The washed platelet preparation is adjusted to 2×10^7 platelets/50 μl in 0.1% BSA-PBS. […] After mixing, incubating for 10 minutes at room temperature, and centrifuging for 1 minute in a Beckman Microfuge B (8000 xg), the pellet is removed by clipping off the tip of the tube, the platelets are solubilized with 200 μl of 50% methanol, and counted in 10 ml of Aquasol. […] Results obtained with representative compounds of the present invention in this assay are summarized hereinafter in Tables I, II and III.

[5] = test system: PAF; experiment: PAF-Induced Guinea Pig Bronchoconstriction Test; format: in vivo, guinea pig (Hartley); details: 1.0 mg/kg i.v., 1 min pretreatment
Experimental: Male guinea pigs (Hartley strain) weighing 300 to 500 g are anesthetized with urethane (2 g/kg) intraperitoneally and a polyethylene cannula is inserted into the jugular vein for drug administration. Tracheal pressure is recorded from a cannula inserted in the trachea and connected to a Statham pressure transducer. Propranolol (0.1 mg/kg) is administered intravenously five minutes before challenge with synthetic PAF, the animals's skeletal muscles are then paralyzed with succinylcholine (1.2 mg/kg i.v.), and the animal is respirated using a Harvard small animal respirator operating at 40 breaths/min and 2.5 cc stroke volume. Under these conditions PAF induces a dose-dependent increase in ventilatory pressure over a dose range of 0.5 to 5 pg/kg i.v. The bronchoconstrictive effect of PAF occurs at approximately a 10-fold lower dose than that obtained with LTE. For screening purposes animals are challenged with a single dose of PAF (10 pg/kg i.v.).
Test compounds are screened by either the intravenous route (1.0 mg/kg i.v., 1 min pretreatment) or oral route (100 mg/kg p.o., 2 hour pretreatment). The peak increase in ventilatory pressure (cm H2 O) is recorded for three control animals and five drug-treated animals and the percent inhibition determined.

[6] = Table II, read-out: SRS Antagonism IC50
[7] = Table II, read-out: TXA2 Synth. Inhib. % at (1μM)
[8] = Table III, read-out: TXA2 Synth. Inhib. % at (1 μM)
[9] = Table I, read-out: TXA2 Syn. Inhib. (1μM)

SMILES: CCCc1c(OCCCC(=O)NCCCCc2cccnc2)ccc(C(C)=O)c1O [drawing 40]
Arrhy's (R/T) [1]: 0/3
decrease in blood pressure (.dwnarw.XABP) [1]: -26 ± 8 Δmm Hg
increase in blood pressure (.uparw.XABP) [1]: 6 ± 6 Δmm Hg

SMILES: CCCc1c(OCc2cccc(C(=O)NCCCCc3cccnc3)c2OCC)ccc(C(C)=O)c1O [Example 36, 3-[(4-Acetyl-3-hydroxy-2-propylphenoxy)-methyl]-2-ethoxy-[4-(3-pyridinyl)butyl]benzamide]
inhibition of PAF-induced bronchoconstriction [5]: 96±2%

SMILES: CCCc1c(OCc2ccc(C(=O)NCCCCc3cccnc3)c(OCC)c2)ccc(C(C)=O)c1O [Example 37, 4-[(4-Acetyl-3-hydroxy-2-propylphenoxy)-methyl]-2-ethoxy-N-[4-(3-pyridinyl)butyl]benzamide]
inhibition of PAF-induced bronchoconstriction [5]: 96±1%

SMILES: CCCc1c(OCCCCCC(=O)NCCCCc2cccnc2)ccc(C(C)=O)c1O [drawing 39]
Arrhy's (R/T) [1]: 0/5
decrease in blood pressure (.dwnarw.XABP) [1]: -16 ± 6 Δmm Hg
increase in blood pressure (.uparw.XABP) [1]: 6 ± 3 Δmm Hg

SMILES: CCCc1c(OCC#CCCCC(=O)NCCCCc2cccnc2)ccc(C(C)=O)c1O [drawing 42]
Arrhy's (R/T) [1]: 1/3
decrease in blood pressure (.dwnarw.XABP) [1]: -44.5 Δmm Hg
increase in blood pressure (.uparw.XABP) [1]: 18 ± 4 Δmm Hg

SMILES: CCCc1c(OCCCCCC(=O)NCCCCc2cncnc2)ccc(C(C)=O)c1O [drawing 41]
Arrhy's (R/T) [1]: 1/3
decrease in blood pressure (.dwnarw.XABP) [1]: -44 ± 5 Δmm Hg
increase in blood pressure (.uparw.XABP) [1]: 32 ± 2 Δmm Hg

The next lines start with results.

IC50 [2, 6]: 1 µM
inhibition at 1 µM [3, 7]: 35%
IC50 ([4]; Table II): 1 µM
SMILES: CCCc1c(OCCCCCC(=O)NCCSc2cccnc2)ccc(C(C)=O)c1O

IC50 ([2]; standard SRS-A antagonist, read-out: IC50, SRS-A induced constriction of the guinea pig ileum): 0.035 µM
SMILES: CCCc1c(OCC(O)COc2ccc3c(=O)cc(C(=O)O)oc3c2CCC)ccc(C(C)=O)c1O (stereo not drawn) [7-[3-(4-acetyl-3-hydroxy-2-propylphenoxy)-2-hydroxypropoxy]-4-oxo-8-propyl-4H-1-benzopyran-2-carboxylic acid, reference compound]

IC50 [2, 6]: 0.7 µM
IC50 ([4]; Table II): 0.6 µM
SMILES: CCCc1c(OCC#CCCCC(=O)NCCCCc2cccnc2)ccc(C(C)=O)c1O [drawing 35]

inhibition at 1 µM [3, 8]: 89%
IC50 ([4]; Table III): 0.9 µM
SMILES: CCCc1c(OCCCCCNC(=O)NCCCCc2cccnc2)ccc(C(C)=O)c1O [Example 29, N-[5-(4-Acetyl-3-hydroxy-2-propylphenoxy)-pentyl]-N'-[4-(3-pyridinyl)butyl]urea]
inhibition of PAF-induced bronchoconstriction [5]: 68±10%

IC50 [2, 6]: 10 µM
inhibition at 1 µM [3, 7]: 66%
IC50 ([4]; Table II): 0.55 µM
SMILES: CCCc1c(OCCCCCC(=O)NCCCCc2cncnc2)ccc(C(C)=O)c1O [drawing 31]

inhibition at 1 µM [3, 9]: 35%
IC50 ([4]; Table I): 0.5 µM
SMILES: CCCc1c(OCCCCCC(=O)NCCc2cccnc2)ccc(C(C)=O)c1O [Example 10, 6-(4-Acetyl-3-hydroxy-2-propylphenoxy)-N-[2-(3-pyridinyl)ethyl]hexanamide]

IC50 ([2]; Table I, read-out: SRS-A Antagonism IC50): 5 µM
inhibition at 1 µM [3, 9]: 89%
inhibition at 1 µM [3, 8]: 89%
IC50 ([4]; Table I): 0.25 µM
SMILES: CCCc1c(OCCCC(=O)NCCCCc2cccnc2)ccc(C(C)=O)c1O [Example 5, 4-(4-Acetyl-3-hydroxy-2-propylphenoxy)-N-[4-(3-pyridinyl)butyl]butanamide]
inhibition of PAF-induced bronchoconstriction [5]: 64±12%

inhibition at 1 µM [3, 9]: 81%
IC50 ([4]; Table I): 1.5 µM
SMILES: CCCc1c(OCC(=O)NCCCCc2cccnc2)ccc(C(C)=O)c1O [Example 7, (4-Acetyl-3-hydroxy-2-propylphenoxy)-N-[4-(3-pyridinyl)butyl]acetamide]

inhibition at 1 µM [3, 8]: 77%
IC50 ([4]; Table III): 0.2 µM
SMILES: CCCc1c(OCC(C)CC(=O)NCCCCc2cccnc2)ccc(C(C)=O)c1O (stereo not drawn) [Example 23, 4-(4-Acetyl-3-hydroxy-2-propylphenoxy)-3-methyl-N-[4-(3-pyridinyl)butyl]butanamide]

inhibition at 1 µM [3, 9]: 93%
IC50 ([4]; Table I): 1 µM
SMILES: CCCc1c(OCCCCCCC(=O)NCCCCc2cccnc2)ccc(C(C)=O)c1O [Example 3, 7-(4-Acetyl-3-hydroxy-2-propylphenoxy)-N-[4-(3-pyridinyl)butyl]heptanamide]
